The compounds below were run on a variety of test species (assay: Post-emergence herbicidal activity). Settings: rate 250 g/ha, evaluated after 13 days.
Format: in vivo
Design: key to ABUTH (Abutilon theophrasti) damage score / AMARE (Amaranthus retroflexus) damage score / ALOMY (Alopecurus myosuroides) damage score / ECHCG (Echinochloa crus-galli) damage score / ZEAMX (Zea mays) damage score / SOLNI (Solanum nigrum) damage score: 0 = no damage to plant, 5 = total damage to plant
Outline: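 Damage on a 0–5 scale (5 = plant killed) was rated 13 days after treatment. Test species had been sown in standard soil and raised 8 days under glasshouse conditions of 24/16 °C, 14 h light, 65% humidity. They were then sprayed with aqueous solution from an acetone/water 50:50 formulation containing 0.5% Tween 20.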

Structure (SMILES)	ABUTH (Abutilon theophrasti) damage score	ALOMY (Alopecurus myosuroides) damage score	AMARE (Amaranthus retroflexus) damage score	ECHCG (Echinochloa crus-galli) damage score	SETFA (Setaria faberi) damage score	ZEAMX (Zea mays) damage score
COC1=C(C)C(=O)N(c2cc(C(F)(F)F)c(OCCOCc3ccccc3)cn2)C1O (stereo not drawn) [AD81]	5	2	5	2	3	1
C=C(C)COc1cnc(N2C(=O)C(C)=C(OC)C2O)cc1C(F)(F)F (stereo not drawn) [AD77]	5	3	5	1	4	0

Same assay, conditions: rate 1000 g/ha, evaluated after 13 days

Structure (SMILES)	ABUTH (Abutilon theophrasti) damage score	ALOMY (Alopecurus myosuroides) damage score	AMARE (Amaranthus retroflexus) damage score	ECHCG (Echinochloa crus-galli) damage score	SETFA (Setaria faberi) damage score	ZEAMX (Zea mays) damage score	SOLNI (Solanum nigrum) damage score
COC1=C(C)C(=O)N(c2cc(C(C)C)c(OC)nn2)C1O (stereo not drawn) [BD5]	5	5	5	5	5	3	–
CC1=C(Cl)C(O)N(c2cc(C(C)C)c(C(=O)OC(C)C)cn2)C1=O (stereo not drawn) [AA9]	4	2	4	1	1	1	–
COC1=C(C)C(=O)N(c2cc(C(F)(F)F)c(SCc3ccccc3)cn2)C1O (stereo not drawn) [AD93]	3	2	4	3	4	0	–
COC1=C(Br)C(O)N(c2cc(C(C)(C)C)ccn2)C1=O (stereo not drawn) [AE2]	4	1	2	2	4	1	–
CC1=C(Cl)C(O)N(c2cc(Cl)ccn2)C1=O (stereo not drawn) [AA33]	–	1	5	2	3	0	5
COC1=C(C)C(=O)N(c2cc(Cl)ncn2)C1O (racemic) [CD2]	2	3	5	3	4	1	–
COC1=C(C)C(=O)N(c2cc(C(C)(C)C#N)ncn2)C1O (racemic) [CD8]	5	5	5	5	5	3	–
COC1=C(C)C(=O)N(c2cc(C(F)(F)F)c(OCc3ccccc3)cn2)C1O (stereo not drawn) [AD82]	4	2	5	3	5	1	–
CC1=C(Cl)C(O)N(c2cc(C(C)(C)C)ncn2)C1=O (stereo not drawn) [CA1]	1	1	3	1	2	1	–
COc1nnc(N2C(=O)C(C)=C(Br)C2O)cc1C (stereo not drawn) [BB1]	1	0	0	1	2	0	–
COC1=C(C)C(=O)N(c2cc(Br)ncn2)C1O (racemic) [CD5]	3	1	4	1	2	0	–
COC1=C(C)C(=O)N(c2cc(C)c(-c3ccc(F)cc3C)cn2)C1O (stereo not drawn) [AD65]	4	2	5	4	5	1	–
CCOC1=C(C)C(=O)N(c2cc(C(F)(F)F)ccn2)C1O (stereo not drawn) [AD45, 3-ethoxy-2-hydroxy-4-methyl-1-[4-(trifluoromethyl)-2-pyridyl]-2H-pyrrol-5-one]	5	4	5	5	3	1	–
COCCCOc1cnc(N2C(=O)C(C)=C(OC)C2O)cc1C(F)(F)F (stereo not drawn) [AD83]	5	4	5	5	5	1	–
C=Cc1ccc(N2C(=O)C(C)=C(OC)C2O)nc1 (stereo not drawn) [AD33]	2	1	1	3	2	0	–
CC1=C(Cl)C(O)N(c2cc(C(F)(F)F)ccn2)C1=O (stereo not drawn) [AA35]	–	2	5	4	4	0	5
COC1=C(C)C(=O)N(c2cc(N3CCCCC3)ncn2)C1O (stereo not drawn) [CD1, 2-hydroxy-3-methoxy-4-methyl-1-[6-(1-piperidyl)pyrimidin-4-yl]-2H-pyrrol-5-one]	0	0	0	0	0	0	–
COC1=C(C)C(=O)N(c2cc3c(cn2)CCCC3)C1O (stereo not drawn) [AD64]	4	1	2	3	5	1	–

Source: US9611248B2, “Chemical compounds” (Syngenta Participations AG, priority 2013, dated 2017)
